Experimental data from publication PMC10657444, “Design and evaluation of tadpole-like conformational antimicrobial peptides” (Communications Biology, 2023).
≈ marks a conversion by molar mass, not a printed value. Read-outs that look alike come from different tables or passages of the source. Residues, ends and D or L forms follow the SMILES beside them.

What was measured:
[1] = test system: sheep red blood cells; experiment: Hemolysis assay; details: red cells of sheep, 1 h
Procedure: To evaluate the hemolysis effects of peptides, red blood hemolysis was performed as described with minimum modifications. Sterile defibrated sheep blood was purchased from Guangzhou Hongquan Biotechnology Co., LTD. Blood cells were adjusted to 2 × 10^9 cells/mL in phosphate-buffered saline (PBS, pH 7.4). In total, 98 μL sheep red blood cell suspension was incubated with 2 μL of peptides at different concentrations ranging from 3.13 to 100 µM. After incubation for 1 h at 37 °C, the cells were centrifuged and the absorbance of the supernatant was measured at 450 nm. The value for “zero hemolysis” was determined using sterile PBS, while 100% hemolysis was established using 1.5% (v/v) Triton X-100. Hemolysis of testing sample was calculated as the percentage of Triton X-100-induced hemolysis.

[2] = test system: A. baumannii 1337; type: cell-based, Acinetobacter baumannii
Text: (§1) Bacteria were cultivated in Luria-Bertani (LB) broth.

[3] = test system: A. baumannii 1318; type: cell-based, Acinetobacter baumannii
Text: as §1

[4] = test system: HEK293T cells; experiment: MTT cytotoxicity assay; type: cell-based, human
Procedure: (§2) To determine the cytotoxicity of the peptides, we used the MTT (3-(4,5)-dimethylthiahiazo (-z-y1)-3,5-di-phenytetrazoliumromide) dye reduction assay against HEK293T cells. In brief, the 100 μL of cells in 96-well plate were incubated for 24 h at 37 °C, 5% CO2, and then peptide solutions (concentrations ranging from 100 to 0.39 μM) were added and further incubated for 72 h. MTT solution (5 mg/mL) was added and further incubated for 4 h. After incubation, the precipitated MTT formazan crystal was dissolved by addition of dimethyl sulfoxide (DMSO). […]

[5] = MTT cytotoxicity assay; type: cell-based, human; details: human; for viability at 72 h, 0.39 µM / viability at 72 h, 0.78 µM / viability at 72 h, 1.57 µM / viability at 72 h, 6.25 µM / viability at 72 h, 12.5 µM / viability at 72 h, 25 µM / viability at 72 h, 50 µM / viability at 72 h, 100 µM / viability at 72 h, 3.13 µM: HEK293T cells
Procedure: as §2

[6] = test system: MRSA ATCC 43300; type: cell-based, Staphylococcus aureus
Text: as §1

[7] = test system: MRSA USA 300; type: cell-based, Staphylococcus aureus
Text: as §1

[8] = test system: MRSA 3393; type: cell-based, Staphylococcus aureus
Text: as §1

[9] = test system: E. coli S; type: cell-based, Escherichia coli
Text: as §1

[10] = test system: E. coli ATCC 25922; type: cell-based, Escherichia coli
Text: as §1

[11] = test system: Gram-negative bacterial strains; type: cell-based
Text: as §1

[12] = test system: K. pneumoniae ATCC 700603; type: cell-based, Klebsiella pneumoniae
Text: as §1

[13] = test system: K. pneumoniae 3026; type: cell-based, Klebsiella pneumoniae
Text: as §1

[14] = test system: MRSA; type: cell-based, Staphylococcus aureus
Text: as §1

[15] = OD450, cytotoxicity (Fig 2a), replicates

| Structure (SMILES) | HC10 (concentration inducing 10% hemolysis) [1] [µM] | MIC Gram- A. b 1337 [2] [µM] | MIC Gram- A. b 1318 [3] [µM] | toxicity / cytotoxicity against HEK293T cells (in words) [4] | IC50 at 72 h [5] [µM] | viability at 72 h, 0.39 µM [5, 15] [%] | viability at 72 h, 0.78 µM [5, 15] [%] | viability at 72 h, 1.57 µM [5, 15] [%] | viability at 72 h, 6.25 µM [5, 15] [%] | viability at 72 h, 12.5 µM [5, 15] [%] | viability at 72 h, 25 µM [5, 15] [%] | viability at 72 h, 50 µM [5, 15] [%] | viability at 72 h, 100 µM [5, 15] [%] | MIC Gram+ MRSA ATCC 43300 ([6]; ATCC 43300) [µM] | MIC Gram+ MRSA USA 300 [7] [µM] | MIC Gram- E. coli S [9] [µM] | MIC Gram- E. coli ATCC 25922 [10] [µM] | MIC Gram- K. p ATCC 700603 [12] [µM] | MIC Gram- K. p 3026 [13] [µM] | viability at 72 h, 3.13 µM [5, 15] [%] | other results |
| --- | --- | --- | --- | --- | --- | --- | --- | --- | --- | --- | --- | --- | --- | --- | --- | --- | --- | --- | --- | --- | --- |
| CC[C@H](C)[C@H](NC(=O)[C@H](CCCNC(=N)N)NC(=O)[C@H](CCCNC(=N)N)NC(=O)[C@H](CC(C)C)NC(=O)[C@H](Cc1ccccc1)NC(=O)[C@H](Cc1ccccc1)NC(=O)[C@H](Cc1ccccc1)NC(=O)[C@@H](N)Cc1ccccc1)C(=O)N[C@@H](Cc1ccccc1)C(=O)N[C@@H](CCCNC(=N)N)C(=O)N[C@@H](CCCNC(=N)N)C(N)=O [F-SHf(R^5)-RR] (H-FFFFLRRIFRR-NH2; N-terminus assumed) | > 100.0 | 12.5 (≈ 20 µg/mL) | 12.5 (≈ 20 µg/mL) | high toxicity | 0.5 | 69.1 | 45.9 | 6.12 | 3.98 | 2.72 | 3.79 | 2.62 | 1.75 | 1.57 (≈ 2.52 µg/mL) | 1.57 (≈ 2.52 µg/mL) | 6.25 (≈ 10 µg/mL) | 12.5 (≈ 20 µg/mL) | 25 (≈ 40.1 µg/mL) | 12.5 (≈ 20 µg/mL) |  | MIC Gram+ MRSA ATCC 43300 [6]: 1.57 µM (≈ 2.52 µg/mL); MIC Gram+ MRSA 3393 [8]: 1.57 µM (≈ 2.52 µg/mL); MICs against the tested Gram-negative bacterial strains [11]: 6.25 to 25 µM |
| CC[C@H](C)[C@H](NC(=O)[C@H](CCCNC(=N)N)NC(=O)[C@H](CCCNC(=N)N)NC(=O)[C@H](CC(C)C)NC(=O)[C@H](Cc1ccccc1)NC(=O)[C@H](CCCNC(=N)N)NC(=O)[C@@H](N)CCCNC(=N)N)C(=O)N[C@@H](Cc1ccccc1)C(=O)N[C@@H](Cc1ccccc1)C(=O)N[C@@H](Cc1ccccc1)C(=O)N[C@@H](Cc1ccccc1)C(N)=O [HT3] (H-RRFLRRIFFFF-NH2; N-terminus assumed) | > 100.0 | 6.25 (≈ 10 µg/mL) | 6.25 (≈ 10 µg/mL) |  | 49 | 94 | 98.7 | 96.4 | 94.9 | 99.5 | 91.4 | 59.2 | 24.2 | 1.57 (≈ 2.52 µg/mL) | 3.13 (≈ 5.02 µg/mL) | 25 (≈ 40.1 µg/mL) | 6.25 (≈ 10 µg/mL) | 6.25 (≈ 10 µg/mL) | 6.25 (≈ 10 µg/mL) | 97.8 | viability at 72 h, 0.78 µM ([5]; HEK293T, 0.78 µM, read-out: OD450, cytotoxicity (Fig 2a), replicates): 95.8%; viability at 72 h, 12.5 µM ([5]; HEK293T, 12.5 µM, read-out: OD450, cytotoxicity (Fig 2a), replicates): 94.4%; MIC Gram+ MRSA 3393 [8]; 3393: 3.13 µM (≈ 5.02 µg/mL); MICs against Gram-positive bacterial strains [14]: 1.57 to 3.13 µM; MICs against Gram-negative bacterial strains, such as A. baumannii and Klebsiella pneumoniae [11]: 6.25 µM |
| CC[C@H](C)[C@H](NC(=O)[C@H](CCCNC(=N)N)NC(=O)[C@H](CCCNC(=N)N)NC(=O)[C@H](CC(C)C)NC(=O)[C@H](Cc1ccccc1)NC(=O)[C@H](Cc1ccccc1)NC(=O)[C@H](Cc1ccccc1)NC(=O)[C@@H](N)Cc1ccccc1)C(=O)N[C@@H](Cc1ccccc1)C(N)=O [F-SHf(R^5)] (H-FFFFLRRIF-NH2; N-terminus assumed) | 7.9 | 25 (≈ 32.3 µg/mL) | 25 (≈ 32.3 µg/mL) | high toxicity | 4.6 | 102 | 89.7 | 89.3 | 40.1 | 20.8 | 12.3 | 16.4 | 17.1 | 1.57 (≈ 2.03 µg/mL) | 3.13 (≈ 4.04 µg/mL) | 50 (≈ 64.6 µg/mL) | 12.5 (≈ 16.1 µg/mL) | > 100 | 100 (≈ 129 µg/mL) | 78.6 | MIC Gram+ MRSA 3393 [8]; 3393: 1.57 µM (≈ 2.03 µg/mL) |
